These results are taken from patent US20260347843A1, “NERVOUS SYSTEM DELIVERY ENHANCER” (priority 2022, published 2026).

Data set [1] can be described thus: Evaluation of motor function in an open-field test. The note with it: coadministered with Mapt-targeting ASO (50 μg); 1 hour after intraventricular administration. Type of data set: in vivo, mouse. The method, then:
(§1) On the ASO described in Table 2, the preparation of the nucleic acid, an in vivo experiment, and the evaluation of the target gene suppression effect were performed by the same methods as in Example 1. In this Example, however, the dose of the nucleic acid agent per mouse was 9.4 nmol (50 μg).
(§2) By the below-described methods, evaluation of central nervous system toxicity and evaluation of motor function were performed on mice after intraventricular administration.
To evaluate the motor function, an open-field test was performed at each point of time after the intraventricular administration. Specifically, a mouse was placed in the center of a cage (50 cm in width×50 cm in […]×40 cm in height), and the track of the mouse was recorded for 5 minutes. On the basis of the data recorded, the total maximum moving speed (m/s) and the moving time(s) were measured using the video tracking software (ANY-maze).

Data set [2] can be described thus: Evaluation of central nervous system toxicity (acute tolerability score). The note with it: intraventricular. Type of data set: in vivo, mouse. The method, then:
as §1, §2
In the evaluation of central nervous system toxicity, the behavior was evaluated, using the scoring system shown in FIG. 6, at 30 minutes, 1 hour, and 2 hours after the intraventricular administration. According to the scoring system shown in FIG. 6, the behaviors classified into five categories were evaluated (Categories 1 to 5 in FIG. 6). Each category comprises two behavior evaluation items. Each behavior evaluation item is rated in five stages from 0 to 4 points (Scores 0 to 4 in FIG. 6). A normal behavior is given 0 point, and higher toxicity is given a higher score. In each category, the higher score in the two behavior evaluation items is adopted as the score for the category. The total value of the scores for the five categories is defined as an acute tolerability score (0 to 20 points).

The test system of data set [3] is exon 23/intron 23 of dystrophin pre-mRNA. Briefly: Exon 23 skipping efficiency in the brain after intraventricular administration. In kind it is in vivo, mouse. The note with it: TGN-073 250 μg, hippocampus, striatum, cortex (any site), 7 days. The method, then: The mouse used was a 6-week-old male C57BL/6J mouse having a body weight of 20 g. In the following Examples, all the experiments performed using a mouse were based on n=3. PMO (the PMO single administration group) at 2.5 nmol or 2.5 nmol PMO with 250 μg of TGN-073 added thereto (the PMO/TGN-073 coadministration group) was administered in an amount of 10 μL to the left cerebral ventricle of a mouse.
At 1 week after the intraventricular administration, the mouse was dissected, and the hippocampus, striatum, and cortex (occipital lobe) were extirpated. Subsequently, mRNA was extracted from each tissue, using Isogen II. On the total RNA (900 ng) extracted, One-Step RT-PCR was performed using Qiagen One Step RT-PCR Kit (manufactured by Qiagen N.V.). A reaction solution was prepared in accordance with the protocol attached to the Kit. […]
A reaction product of the above-described RT-PCR, in an amount of 1 μL, was analyzed using Bioanalyzer 2100 (manufactured by Agilent Technologies, Inc.), and using an Agilent DNA1000 kit. The number “A” of moles of the nucleotide of the band skipped by exon 23 and the number “B” of moles of the nucleotide of the band not skipped by exon 23 were measured. On the basis of the measurement values of these “A” and “B”, the skipping efficiency was determined in accordance with the following formula: skipping efficiency (%)=A/(A+B)×100. […]

The nature of data set [4]: VHH antibody concentration in brain tissue after intraventricular administration (Alexa 647 fluorescence). Type of data set: in vivo. The note with it: coadministered with VHH antibody (29 μmol/mouse), TGN-073 250 μg/mouse, left hippocampus, left occipital cortex, left basal ganglia, 3 hours. The method, then: In this Example, a fluorescence-labeled camelized single domain antibody (VHH antibody; Alpaca anti-Rabbit IgG Nano (VHH) Recombinant Secondary Antibody, Alexa Fluor (trademark)647, #SA5-10327, Invitrogen) alone or in combination with TGN-073 (250 μg/mouse) was intraventricularly administered at a dose of […] to an 8-week-old ICR mouse (female). Hereinafter, the mice to which the VHH antibody alone was intraventricularly administered are referred to as the “VHH antibody single administration group”, and the mice to which the VHH antibody and TGN-073 were intraventricularly administered together are referred to as the “VHH antibody/TGN-073 coadministration group”. Brain tissue samples of the left hippocampus, left occipital cortex, and left basal ganglia were collected from the mice at 3 hours after the intraventricular administration. Using a fluorescence plate reader (M1000Pro, Tecan Group Ltd.), the Alexa 647 fluorescence intensity per brain weight was measured to thereby evaluate the concentration of the VHH antibody in each brain tissue.

For data set [5], the system named is Sod1 mRNA. As to the kind of experiment: Sod1 mRNA expression level in the hippocampus after intraventricular administration of siRNA. In kind it is in vivo, mouse. The note with it: coadministered with siRNA (7.0 nmol, 100 μg), 7 days.
The test system of data set [6] is Aquaporin-4. The note with it: as disclosed in WO2017/150704 and Huber V. J. et al., NeuroReport, 2018; cited from earlier work.

With `O=S(=O)(Nc1ncccc1OCc1ccccc1)c1ccccc1` [TGN-073, N-(3-benzyloxypyridin-2-yl)-benzene-sulfonamide], in data set [1], the “Maximum moving speed in open-field test vs ASO single administration” value is on record as “substantially the same maximum moving speed” and the “Moving time in open-field test vs ASO single administration” value is reported as “the same moving time”. Further, the “Central nervous system toxicity” value in data set [2] (TGN-073 single administration, 30 minutes, 1 hour, and 2 hours) is “no toxicity”. The compound further displayed an Acute tolerability score in data set [2] (TGN-073 single administration, 30 minutes, 1 hour, and 2 hours, scale 0 to 20 points) of 0. The “Acute tolerability score vs ASO single administration” value in data set [2] (coadministered with Mapt-targeting ASO (50 μg), 30 minutes, 1 hour, 2 hours) is reported as “substantially the same acute tolerability score as the ASO single administration group”. Moreover, the “Augmentation of neurotoxicity by TGN-073 coadministration” value in data set [2] (coadministered with Mapt-targeting ASO) was “no recognizable augmentation of neurotoxicity at all”. In addition, the “Exon 23 skipping efficiency vs Chol-HDO (PMO) single administration” value in data set [3] (coadministered with Chol-HDO (PMO) (2.5 nmol)) is reported as “noticeable increase”. In addition, in data set [3] (coadministered with PMO (2.5 nmol)), the “Exon 23 skipping efficiency vs PMO single administration” value is listed as “noticeable increase”. Also, the “VHH antibody concentration in the central nervous system vs VHH antibody single administration” value in data set [4] is reported as “dramatic increase”. Besides, the “Target gene (Sod1) suppression effect in the brain (hippocampus) vs siRNA single administration” value in data set [5] is reported as “marked augmentation”. The “Promotion of the function of Aquaporin-4” value in data set [6] is “can promote the function of Aquaporin-4”.
